# Laboratory results published in ChEMBL document CHEMBL1201862, “PubChem BioAssay data set” (2004).
# The source made the active and inactive calls. Unless noted, no cut-off for these calls is given here.
# Assays:
# [1] = biological target: T1, C-C chemokine receptor type 6 (Homo sapiens, UniProt P51684); experiment: CCR6 receptor antagonists, SAR follow-up, cell-based, luminescent beta-arrestin readout (AID 540334); assay type: functional
# T1 sequence (P51684 whole entry): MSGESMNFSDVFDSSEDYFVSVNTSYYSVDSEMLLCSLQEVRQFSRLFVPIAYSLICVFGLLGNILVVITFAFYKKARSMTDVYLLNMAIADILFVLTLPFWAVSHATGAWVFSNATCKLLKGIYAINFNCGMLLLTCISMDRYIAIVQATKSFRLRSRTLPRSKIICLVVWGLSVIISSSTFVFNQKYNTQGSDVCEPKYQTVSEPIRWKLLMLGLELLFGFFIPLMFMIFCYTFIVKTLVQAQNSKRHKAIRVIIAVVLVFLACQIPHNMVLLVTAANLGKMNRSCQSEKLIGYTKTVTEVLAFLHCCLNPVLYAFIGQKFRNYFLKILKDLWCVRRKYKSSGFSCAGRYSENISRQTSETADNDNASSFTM
# Apelin receptor = Apelin receptor (Homo sapiens, UniProt P35414); experiment: APJ beta-arrestin recruitment antagonism, SAR follow-up, selectivity assay for CCR6 antagonist project, cell-based, luminescent, enzyme-fragment complementation (AID 588359); assay type: functional
# Sequence of Apelin receptor (P35414 whole entry, the tested form may be a part): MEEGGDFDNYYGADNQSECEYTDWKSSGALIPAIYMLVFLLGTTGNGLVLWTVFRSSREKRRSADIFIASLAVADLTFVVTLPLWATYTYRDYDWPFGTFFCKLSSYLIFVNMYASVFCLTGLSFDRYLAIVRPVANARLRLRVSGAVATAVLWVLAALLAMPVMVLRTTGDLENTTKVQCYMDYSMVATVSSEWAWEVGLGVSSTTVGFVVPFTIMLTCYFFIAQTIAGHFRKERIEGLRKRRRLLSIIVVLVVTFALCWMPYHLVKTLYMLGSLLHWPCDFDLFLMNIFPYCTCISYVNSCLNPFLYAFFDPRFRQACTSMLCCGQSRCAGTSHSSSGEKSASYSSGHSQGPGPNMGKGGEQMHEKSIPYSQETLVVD
# [2] = biological target: C-X-C chemokine receptor type 5 (Homo sapiens, UniProt P32302); experiment: CXCR5 receptor antagonists, SAR follow-up, selectivity assay for CCR6 antagonist project, cell-based, beta-arrestin, luminescence, CHO-K1 PathHunter (AID 540340); assay type: functional
# Sequence of C-X-C chemokine receptor type 5 (P32302 whole entry, the tested form may be a part): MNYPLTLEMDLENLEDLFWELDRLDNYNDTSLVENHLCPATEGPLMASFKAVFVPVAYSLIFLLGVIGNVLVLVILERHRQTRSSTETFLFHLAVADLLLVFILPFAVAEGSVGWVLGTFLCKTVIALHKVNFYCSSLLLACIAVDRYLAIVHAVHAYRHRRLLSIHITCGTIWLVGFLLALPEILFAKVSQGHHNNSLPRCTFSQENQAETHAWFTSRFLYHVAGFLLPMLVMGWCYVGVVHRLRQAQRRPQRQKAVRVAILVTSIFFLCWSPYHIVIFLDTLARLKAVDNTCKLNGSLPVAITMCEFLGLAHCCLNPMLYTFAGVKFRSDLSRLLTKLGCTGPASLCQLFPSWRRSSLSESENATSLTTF
# [3] = ZM109 Env clade C HIV-1 fusion inhibitors, dose response, HeLa effector, CEM target cells, luciferase, cherry-pick (AID 652058); assay type: functional, cell-based
# [4] = biological target: T2, Luciferin 4-monooxygenase (Photinus pyralis, UniProt P08659); experiment: firefly luciferase enzyme inhibitors, dose response, biochemical, dry powder samples, plate reader (AID 588451)
# T2 sequence (P08659 whole entry): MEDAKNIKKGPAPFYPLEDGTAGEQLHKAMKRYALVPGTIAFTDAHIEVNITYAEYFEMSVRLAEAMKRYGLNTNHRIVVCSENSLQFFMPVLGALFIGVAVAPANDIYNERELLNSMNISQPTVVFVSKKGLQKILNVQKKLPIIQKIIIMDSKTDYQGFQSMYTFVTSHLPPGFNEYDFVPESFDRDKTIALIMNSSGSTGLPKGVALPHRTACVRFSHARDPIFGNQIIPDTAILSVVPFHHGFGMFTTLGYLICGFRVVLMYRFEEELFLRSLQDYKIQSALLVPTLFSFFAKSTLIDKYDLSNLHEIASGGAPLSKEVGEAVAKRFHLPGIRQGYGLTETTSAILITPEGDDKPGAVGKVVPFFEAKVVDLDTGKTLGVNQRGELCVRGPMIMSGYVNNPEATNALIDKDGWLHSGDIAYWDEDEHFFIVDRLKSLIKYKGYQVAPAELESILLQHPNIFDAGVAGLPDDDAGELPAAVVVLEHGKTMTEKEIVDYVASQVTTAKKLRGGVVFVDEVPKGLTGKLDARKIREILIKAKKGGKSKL
# [5] = HEK293 cell cytotoxicity, dose response, cytotoxicity control, plate reader, cherry-picked samples (AID 743446); assay type: functional, cell-based
# [6] = off-target signal loss in HeLa-CEM21 co-culture – HeLa F-luc CTL cells, cherry-picked, counter-screen for HIV-1 Env fusion inhibitor project, dose response (AID 652040); assay type: functional, cell-based;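 note: potency for signal decrease marking cytotoxic or nonspecific inhibition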
# [7] = biological target: T2, Luciferin 4-monooxygenase; experiment: firefly luciferase enzyme inhibitors, dose response, biochemical, luminescence (AID 1891)
# [8] = inhibitors of clade B AD8 Env fusion, dose response, cell-based, cherry-pick (AID 652062); assay type: functional;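 note: luciferase signal from cell-cell fusion driven by HIV-1 clade B AD8 Env; potency is for inhibitors of fusion seen as a drop in luminescence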
# [9] = Luminescence Cell-Based Dose Response HTS to Identify Inhibitors of 5'UTR Stem-Loop Driven Prion Protein mRNA Translation in H4 Neuroglioblastoma Cells. [Related pubchem assays: 1827 (Project Summary), 1813 (Primary HTS)]; assay type: functional
# [10] = Shn3 3'UTR reporter inhibitors, dose response, cell-based, Clone20 osteoblasts, firefly luciferase, cherry-picked (AID 624132); assay type: functional;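 note: firefly luciferase luminescence from reporter carrying the Shn3 3'UTR in osteoblasts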
# [11] = biological target: T3, Heat shock factor protein 1 (Mus musculus, UniProt P38532); experiment: inhibition of MG132-induced HSE-luciferase signal, confirmation, cell-based, NIH3T3, luminescence, dose retest (AID 2382); assay type: functional;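 note: NIH3T3 fibroblasts with HSF1-driven luciferase reporter stressed by proteasome inhibitor MG132; luminescence from HSF1-driven luciferase expression after 8 hours of MG132 stress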
# T3 sequence (P38532 whole entry): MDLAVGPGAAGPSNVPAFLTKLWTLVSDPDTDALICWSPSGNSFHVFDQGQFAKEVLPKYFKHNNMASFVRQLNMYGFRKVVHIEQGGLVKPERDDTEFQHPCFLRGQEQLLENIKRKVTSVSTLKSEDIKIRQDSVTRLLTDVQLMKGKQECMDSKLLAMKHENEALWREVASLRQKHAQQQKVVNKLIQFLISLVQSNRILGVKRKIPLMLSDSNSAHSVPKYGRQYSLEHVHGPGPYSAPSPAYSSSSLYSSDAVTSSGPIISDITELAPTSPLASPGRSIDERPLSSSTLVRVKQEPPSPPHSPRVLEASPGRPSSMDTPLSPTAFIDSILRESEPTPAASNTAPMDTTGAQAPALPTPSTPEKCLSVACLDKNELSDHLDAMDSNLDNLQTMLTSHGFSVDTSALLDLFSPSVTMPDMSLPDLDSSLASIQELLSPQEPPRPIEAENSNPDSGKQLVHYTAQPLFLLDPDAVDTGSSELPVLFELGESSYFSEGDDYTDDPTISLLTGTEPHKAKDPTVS
# [12] = cytotoxicity in HEK-293T cells, dose response, cytotoxicity control for TCR NF-kB inhibitor project, luminescence, T-cell screen hits (AID 489026); assay type: functional, cell-based;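 note: cells exposed to compound about 14 hours before the viability readout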
# [13] = inhibitors of SNCA 5'UTR-driven reporter translation, confirmation, H4 neuroglioma cells, luminescence (AID 1988); assay type: functional, cell-based
# H4 [14] = experiment: Inhibitors of Prion Protein 5' UTR mRNA Measured in Cell-Based System Using Plate Reader - 2078-01_Inhibitor_Dose_DryPowder_Activity. [Related pubchem assays (depositor defined):AID488894]; assay type: functional; settings: Homo sapiens
# [15] = LGR2 antagonists, dose response, cell-based, HEK293, CRE-luciferase reporter, cherry pick, set 2 (AID 743343); assay type: functional;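 note: transfected cells were stimulated with diluted bursicon conditioned medium after compound addition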
# [16] = HepG2 cell cytotoxicity, dose response, cytotoxicity control for Shn3 inhibitor project, CellTiter-Glo, cherry-picked (AID 624134); assay type: functional, cell-based
# [17] = Luminescence Cell-Based Dose Confirmation HTS to Identify Inhibitors of Platelet Dense Granule Release. [Related pubchem assays: 1663 (Primary HTS), 1678 (Summary of Project)]; assay type: functional
# H4 [18] = experiment: inhibitors of control reporter signal in H4 cells – cell-based, plate reader, dry powder samples, counter-screen for prion reporter project, dose response (AID 540255); assay type: functional; settings: Homo sapiens
# [19] = HepG2 cell cytotoxicity, dose response, cytotoxicity control, plate reader, cherry-pick, antagonist series (AID 743416); assay type: functional, cell-based
# [20] = A549 cell cytotoxicity, dose response, cytotoxicity control, plate reader, cherry-pick, antagonist series (AID 743412); assay type: functional, cell-based
# [21] = inhibitors of firefly luciferase expression or activity, dose response, H4 neuroglioma cells, luminescence (AID 1990); assay type: functional, cell-based
# [22] = MC4R antagonists, dose response, counter-screen for LGR2 antagonist project, cell-based, plate reader, cherry pick (AID 743444); assay type: functional;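 note: transfected HEK 293 cells stimulated with alpha-MSH peptide; potency of inhibitors of the alpha-MSH evoked signal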
# [23] = inhibitors of HIV Env-driven cell fusion, dose response, cherry-pick (AID 652057); assay type: functional, cell-based
# [24] = CEM21 lymphoblast cell cytotoxicity, dose response, cytotoxicity control for viral fusion inhibitor project, CellTiter-Glo luminescence, cherry-picked (AID 652042); assay type: functional, cell-based;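 note: potency for signal decrease meaning cytotoxicity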
# [25] = reduction of Shn3 3'UTR firefly luciferase signal, dose response, Schnurri-3 inhibitor project, cell-based, Clone20 osteoblasts, cherry-pick, set 2 (AID 720490); assay type: functional;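 note: actives lower the luminescence signal as inhibitors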
# H4 [26] = experiment: Amyloid Precursor 5' UTR neuroblastoma cell reporter line Measured in Cell-Based System Using Plate Reader - 2078-04_Inhibitor_Dose_DryPowder_Activity. [Related pubchem assays (depositor defined):AID488894]; assay type: functional; settings: Homo sapiens
# Vero = experiment: Vero E6 cell cytotoxicity, dose response, cytotoxicity control (AID 540298); assay type: functional; settings: Chlorocebus sabaeus
# MDCK [27] = experiment: antiviral activity against H1N1 influenza, dose response, cell-based, strain KY136 (AID 540257); assay type: functional; settings: Canis lupus familiaris
# Nonstructural protein 1 = Nonstructural protein 1 (Influenza A virus, UniProt Q194T2); assay type: functional, Influenza A virus (A/California/07/2009(H1N1))
# Sequence of Nonstructural protein 1 (Q194T2 whole entry): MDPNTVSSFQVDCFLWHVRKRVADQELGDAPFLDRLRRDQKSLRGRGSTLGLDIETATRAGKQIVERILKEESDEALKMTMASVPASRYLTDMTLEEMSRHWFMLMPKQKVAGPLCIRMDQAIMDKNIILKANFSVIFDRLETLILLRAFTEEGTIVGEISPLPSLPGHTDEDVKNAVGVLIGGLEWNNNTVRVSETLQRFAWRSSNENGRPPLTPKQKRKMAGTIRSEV
# MDCK [28] = experiment: MDCK cell cytotoxicity, dose response, cytotoxicity control (AID 540296); assay type: functional; settings: Canis lupus familiaris
# [29] = THP-1 cell cytotoxicity, dose response, cytotoxicity control, set 3 (AID 504852); assay type: functional; settings: Mycobacterium tuberculosis
# Insulin-degrading enzyme [30] = biological target: T4, Insulin-degrading enzyme (Homo sapiens, UniProt P14735); experiment: activators of endogenous IDE in HEK cells, dose response, cell-based, fluorescence polarization (AID 588439); assay type: functional
# T4 sequence (P14735 whole entry): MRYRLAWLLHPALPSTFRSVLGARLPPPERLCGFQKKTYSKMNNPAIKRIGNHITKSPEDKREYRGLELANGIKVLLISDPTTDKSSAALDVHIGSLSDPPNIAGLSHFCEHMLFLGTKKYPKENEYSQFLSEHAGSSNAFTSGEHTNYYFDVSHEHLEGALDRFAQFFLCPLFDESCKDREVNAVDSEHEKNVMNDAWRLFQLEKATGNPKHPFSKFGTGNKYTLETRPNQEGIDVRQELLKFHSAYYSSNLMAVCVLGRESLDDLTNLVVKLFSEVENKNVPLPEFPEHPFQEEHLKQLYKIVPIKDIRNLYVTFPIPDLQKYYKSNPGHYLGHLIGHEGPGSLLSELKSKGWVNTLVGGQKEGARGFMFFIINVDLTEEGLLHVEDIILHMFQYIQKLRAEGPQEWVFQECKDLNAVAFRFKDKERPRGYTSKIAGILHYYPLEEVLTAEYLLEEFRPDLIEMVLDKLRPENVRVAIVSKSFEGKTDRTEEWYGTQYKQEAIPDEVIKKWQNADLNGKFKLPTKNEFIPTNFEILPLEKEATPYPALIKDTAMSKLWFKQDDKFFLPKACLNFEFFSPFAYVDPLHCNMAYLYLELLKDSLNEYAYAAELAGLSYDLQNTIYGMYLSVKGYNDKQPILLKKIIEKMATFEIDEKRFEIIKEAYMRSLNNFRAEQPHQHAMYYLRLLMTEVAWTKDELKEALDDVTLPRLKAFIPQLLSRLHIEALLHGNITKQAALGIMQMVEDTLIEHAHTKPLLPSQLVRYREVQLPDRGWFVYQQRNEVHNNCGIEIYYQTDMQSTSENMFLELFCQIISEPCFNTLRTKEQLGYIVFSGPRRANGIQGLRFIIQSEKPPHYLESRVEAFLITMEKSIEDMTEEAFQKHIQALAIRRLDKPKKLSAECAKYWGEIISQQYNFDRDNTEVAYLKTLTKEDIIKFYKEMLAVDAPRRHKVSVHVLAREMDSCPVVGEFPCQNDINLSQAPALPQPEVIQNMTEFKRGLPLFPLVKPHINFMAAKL
# HEK293 [31] = experiment: optical interference in Abeta FP readout, dose response, artefact control for IDE activator project, biochemical, fluorescence polarization (AID 588442); assay type: functional, cell-based; settings: Homo sapiens
# Insulin-degrading enzyme [32] = biological target: T4, Insulin-degrading enzyme; experiment: activators of recombinant IDE enzyme, dose response, counter-screen for IDE activator project, biochemical, fluorescence polarization (AID 588681)
# [33] = biological target: FAD-linked sulfhydryl oxidase ALR (Homo sapiens, UniProt P55789); experiment: inhibitors of human ALR sulfhydryl oxidase, dose response, biochemical, H2O2 detection, luminescence, cherry-pick (AID 493248)
# Sequence of FAD-linked sulfhydryl oxidase ALR (P55789 whole entry): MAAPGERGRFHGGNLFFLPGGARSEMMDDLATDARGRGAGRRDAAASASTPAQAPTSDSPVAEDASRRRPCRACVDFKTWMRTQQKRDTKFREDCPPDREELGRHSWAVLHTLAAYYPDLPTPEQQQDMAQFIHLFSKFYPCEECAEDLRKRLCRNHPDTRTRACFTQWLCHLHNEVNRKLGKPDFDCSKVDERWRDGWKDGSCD
# HEK293 [34] = experiment: HEK cell cytotoxicity by LDH release, dose response, cytotoxicity control for IDE activator project, fluorescence, HEK cells (AID 588440); assay type: functional, cell-based; settings: Homo sapiens;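 note: cytotoxicity by LDH release measuring loss of membrane integrity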
# CHO = experiment: cytotoxicity in TLR9-MyD88 CHO cells, dose response, cytotoxicity control for TLR9-MyD88 binding inhibitor project, cell-based, luminescence (AID 588339); assay type: functional, hamster; settings: Cricetulus griseus;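 note: CHO cells stably coexpressing TLR9 and MyD88 fusions from primary screen; compound exposure lasted 48 hours before viability readout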
# Beta Lactamase = Beta Lactamase (Pseudomonas aeruginosa, UniProt Q932Y6); experiment: beta-lactamase reporter inhibitor potency, dose response, artefact control for TLR9-MyD88 binding inhibitor project, BLA reporter cells, FRET fluorescence (AID 588341); assay type: cell-based;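 note: cell based assay in CHO-K1 cells stably expressing beta-lactamase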
# Sequence of Beta Lactamase (Q932Y6 whole entry): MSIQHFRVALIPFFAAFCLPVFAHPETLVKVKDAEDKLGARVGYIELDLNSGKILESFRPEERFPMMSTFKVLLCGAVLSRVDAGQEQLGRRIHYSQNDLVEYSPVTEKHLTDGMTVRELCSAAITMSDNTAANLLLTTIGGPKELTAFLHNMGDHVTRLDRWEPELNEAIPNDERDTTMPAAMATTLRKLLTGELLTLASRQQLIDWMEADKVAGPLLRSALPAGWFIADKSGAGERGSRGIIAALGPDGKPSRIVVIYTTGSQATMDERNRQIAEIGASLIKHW
structure (smiles),measurement,setting,value
C/C=C(\C)C(=O)OC1[C@H](OC(C)=O)C2(CO)C(CC1(C)C)C1=CCC3C4(C)CCC(O[C@@H]5O[C@H](C(=O)O)[C@@H](O[C@@H]6O[C@H](CO)[C@@H](O)[C@H](O)[C@H]6O)[C@H](O)[C@H]5O[C@H]5O[C@H](CO)[C@@H](O)[C@H](O)[C@H]5O)[C@](C)(CO)C4CCC3(C)[C@]1(C)C[C@H]2O (some centres undefined),IC50,[1],7.82 µM (active)
same,IC50,Apelin receptor,9.07 µM (active)
same,IC50,[2],9.46 µM (inactive)
Cc1c(C)c2ccc(OCC(=O)Nc3ccccn3)c(C)c2oc1=O,AC50,[3],6.61 µM (active)
same,AC50,[4],0.101 µM (active)
same,AC50,[5],48.7 µM (active)
same,AC50,[6],1.83 µM (active)
same,EC50,[7],0.629 µM (active)
same,AC50,[8],0.429 µM (active)
same,EC50,[9],0.214 µM (active)
same,AC50,[10],0.416 µM (active)
same,EC50,[11],< 0.16 µM (active)
same,IC50,[12],> 80 µM (inactive)
same,EC50,[13],0.236 µM (active)
same,AC50,H4 [14],0.027 µM (active)
same,AC50,[15],0.0802 µM (active)
same,AC50,[16],37.1 µM (active)
same,EC50,[17],2.73 µM (active)
same,AC50,H4 [18],0.021 µM (active)
same,AC50,[19],25.3 µM (active)
same,AC50,[20],33.5 µM (active)
same,EC50,[21],0.36 µM (active)
same,AC50,[22],< 0.068 µM (active)
same,AC50,[23],1.71 µM (active)
same,AC50,[24],35 µM (active)
same,AC50,[25],1.77 µM (active)
same,AC50,H4 [26],0.0103 µM (active)
CCc1ccccc1NC(=O)CSc1nc2nnc(C)c-2c(N)n1-c1cccc(OC)c1,CC50,Vero,24.4 µM (active)
same,IC50,MDCK [27],7.75 µM (active)
same,IC50,Nonstructural protein 1,> 100 µM (active)
same,CC50,MDCK [28],35.7 µM (active)
CCOC1OC(=O)C(Cl)=C1Nc1ccccc1C (centres undefined),CC50,[29],> 100 µM (active)
COc1cccc(CNc2ccc3c(c2)ncn3C(C)C)c1OC,EC50,Insulin-degrading enzyme [30],43.8 µM (inactive)
same,EC50,HEK293 [31],> 55.9 µM (inactive)
same,EC50,Insulin-degrading enzyme [32],> 54.7 µM (inactive)
same,AC50,[33],2.58 µM (active)
same,IC50,HEK293 [34],> 89.2 µM (inactive)
Cc1nn(C)c(C)c1N1C(=O)c2cccc3c(Br)ccc(c23)C1=O,IC50,CHO,7.3 µM (active)
same,IC50,Beta Lactamase,5.72 µM (active)
